Consider four molecules from patent US20260240798A1, “SOLID FORMS OF RXFP1 MODULATORS” (ASTRAZENECA AB, priority 2022, published 2026).

Converted amounts (≈) assume the structure as drawn.

The conditions of data set [1]: cited from earlier work.
In data set [2] the target is T1, human RXFP1 (Homo sapiens, UniProt Q9HBX9).
T1 construct: expressed in transfected cells; host or cells: HEK293s cells, vector pIRESneo3
T1 sequence (Q9HBX9 1-757): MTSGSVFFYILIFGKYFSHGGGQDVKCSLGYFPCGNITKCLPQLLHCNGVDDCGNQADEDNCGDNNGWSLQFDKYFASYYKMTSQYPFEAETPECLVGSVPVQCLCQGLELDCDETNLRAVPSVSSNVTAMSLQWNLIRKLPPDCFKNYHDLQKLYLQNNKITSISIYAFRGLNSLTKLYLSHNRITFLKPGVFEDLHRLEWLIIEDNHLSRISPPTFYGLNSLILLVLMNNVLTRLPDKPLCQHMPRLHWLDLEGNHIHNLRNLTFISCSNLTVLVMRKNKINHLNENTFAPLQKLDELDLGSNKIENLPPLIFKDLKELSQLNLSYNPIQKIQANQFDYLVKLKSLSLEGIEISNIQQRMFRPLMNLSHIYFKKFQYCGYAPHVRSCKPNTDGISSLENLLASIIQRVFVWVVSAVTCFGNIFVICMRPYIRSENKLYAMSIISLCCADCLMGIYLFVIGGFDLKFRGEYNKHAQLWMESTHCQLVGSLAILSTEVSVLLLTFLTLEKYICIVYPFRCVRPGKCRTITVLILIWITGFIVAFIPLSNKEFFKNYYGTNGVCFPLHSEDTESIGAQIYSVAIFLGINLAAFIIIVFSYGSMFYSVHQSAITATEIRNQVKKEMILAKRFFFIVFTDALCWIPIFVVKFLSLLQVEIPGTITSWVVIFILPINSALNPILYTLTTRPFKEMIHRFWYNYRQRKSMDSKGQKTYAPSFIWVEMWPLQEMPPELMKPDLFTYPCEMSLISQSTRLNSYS
Briefly: Human RXFP1 cGMP Production Assay (Test G). Type of data set: cell-based. Particulars: HEK293s cells stably transfected with human RXFP1. As for the experimental part: Human RXFP1 cGMP Production Assay (Test G)
To profile compounds for RXFP1 agonist activity with respect to cGMP production, the Green GENIe cGMP Assay (Montana Molecular; catalogue number D800G) was employed. […] Fluorescence is reduced when cGMP is bound to the biosensor.
(§1) Cells: HEK293s cells stably transfected with human RXFP1 in pIRESneo3 was employed.
• 2. […] Cells and transduction mastermix were mixed in proportions 30 μL cells and 20 μL mastermix for a single well. • 6. […] Plate was incubated in the dark at 37° C., 5% CO2 for 24 h.
• 8. Medium was removed from plates using a Bluewasher (BluCatBio). • 9. 20 μL assay buffer was added with a Multidrop Combi (ThermoFisher). • 10. Plate was incubated in the dark at room temperature for 30 min prior to assaying. • 11. Plates were assayed using a FLIPR Tetra (Molecular Devices): 10 μL compound diluted with assay buffer was added to each well by the FLIPR Tetra and measuring green fluorescence over time for up to 3 h.
After subtraction of background fluorescence (before addition of compounds), area under curve values from 0 to 90 min after compound addition was used for calculation of responses.

The target of data set [3] is T1, human RXFP1. Briefly: Human RXFP1 Phospho-ERK Assay (Test H). Type of data set: cell-based. The note with it: HEK293s cells stably transfected with human RXFP1; read-out: Test H phospo-ERK assay EC50.
Description: as §1

The nature of data set [4]: Solubility of crystalline Form A of Compound (I) in pH 1.2 SGF, shake-flask (Test J). It is filed as physicochemical. The note with it: simulated gastric fluid pH 1.2 (SGF), thermodynamic from solid, 37° C., 24 h agitation. As to the method:
Crystalline solubility in simulated gastric fluid pH 1.2 (SGF) was measured using a miniaturized shake-flask method (24 h agitation at 37° C.).
The samples were agitated at 37° C. for 24 hours in an Eppendorf shaker, agitation speed 1000 rpm. The samples were then centrifuged at 10000 RPM for 15 minutes, 37° C. Approximately 500 μL of the supernatant was withdrawn with automatic pipette to a new vial and centrifuged again for 15 min at 10000 rpm, 37° C. Then from the second centrifugation, samples were taken with automatic pipette to final dilution. pH was measured in the equilibrated remaining sample solution after the second centrifugation. XRPD was used to confirm that no form change had occurred.

The subject of data set [5] is Human Plasma Protein. Briefly: Human Plasma Protein Binding (Test B). Type of data set: in vitro ADME. The note with it: fraction unbound (fu). As for the experimental part: Human Plasma Protein Binding (Test B)
The assay was conducted according to the Human Plasma Protein Binding Assay described in pages 167-170 of Wernevik, J. et al., “A Fully Integrated Assay Panel for Early Drug Metabolism and Pharmacokinetics Profiling”, Assay and Drug Development Technologies, 2020, 18(4), 157-179. Data are reported in Table 1 as fraction unbound (fu) (% free). Where the assay was run multiple times for the same compound, the arithmetic mean is reported.

Data set [6] is described as follows: Solubility (pH 7.4) (Test F). The note with it: pH 7.4, aqueous buffer. It is filed as physicochemical. As to the method: Solubility (pH 7.4) (Test F)
The assay was conducted according to the Solubility Assay described in pages 164-167 of Wernevik, J. et al., “A Fully Integrated Assay Panel for Early Drug Metabolism and Pharmacokinetics Profiling”, Assay and Drug Development Technologies, 2020, 18(4), 157-179. Where the assay was run multiple times for the same compound, the arithmetic mean is reported.

The nature of data set [7]: Solubility of amorphous Compound (I) in pH 1.2 SGF, turbidimetric method (Test I). Type of data set: physicochemical. The note with it: 37° C. As for the experimental part: 10 μL of the stock solution was rapidly injected into 990 μL of stabilizer solution containing 0.2% w/w PVPK30 and 0.2% w/w Pluronic F127 and 0.25 mM SDS aqueous solution under a few seconds of ultrasonic treatment to make a 1 mM amorphous nanosuspension. This formulation is further diluted to 0.25 mM with purified water.
The bulk concentration in equilibrium with amorphous particles is determined at 37° C. by a turbidimetric method (described in Lindfors et. al., Langmuir, 2006, 22(3), 911-916). Small volumes of drug suspension are successively added directly to a fluorescence cuvette containing 2000 μL simulated gastric fluid pH 1.2 (SGF) and are then mixed to give the desired concentrations. The light scattering intensity at 700 nm is recorded at a scattering angle of 90° as a function of total drug concentration. As a light scattering setup, a Perkin-Elmer LS 55 Luminescence Spectrometer is used, setting both the emission and excitation wavelengths to 700 nm. Slit excitation is set to 2.5 nm and slit emission is set to 5 nm. Particles are allowed to dissolve for at least 30 seconds prior to measurements starting. Data are then collected for 1 minute and a mean light scattering intensity is calculated. The solubility examination was performed within 45 min of the formation of the amorphous nanosuspension.
At low concentrations the particles dissolve, while at concentrations above the solubility, the particles remain suspended, leading to an almost linear increase in light scattering intensity as a function of total concentration.

As to serelaxin, in data set [1] (approximately one third of the patients, intravenous), the blood pressure drop is reported as > 40 mm Hg. Besides, the “markers of cardiac, renal and hepatic damage and congestion” value in data set [1] (hospitalized patients, continuous intravenous administration) is “improved”. Moreover, the “clearance from the patients' circulation” value in data set [1] (patients) is “rapid clearance”.

relaxin2: the EC50 in data set [2] worked out at 85 pM; in data set [3], 38 pM.

`COc1cc(F)c(O[C@H]2CC[C@@](C)(C(=O)O)CC2)cc1C(=O)N[C@@H]1[C@H]2CC[C@H](C2)[C@@H]1C(=O)NCC1(C)CCC1` [Form A of Compound (I), (1S,4s)-4-(2-Fluoro-4-methoxy-5-(((1S,2R,3S,4R)-3-(((1-methylcyclobutyl)methyl)carbamoyl)bicyclo[2.2.1]heptan-2-yl)carbamoyl)phenoxy)-1-methylcyclohexane-1-carboxylic acid] yielded a solubility at 24 h in data set [4] of 0.4 µM (≈ 0.218 µg/mL).

In the case of `COc1cc(F)c(O[C@H]2CC[C@@](C)(C(=O)O)CC2)cc1C(=O)N[C@@H]1[C@H]2CC[C@H](C2)[C@@H]1C(=O)NCC1(C)CCC1` [Compound (I), (1S,4s)-4-(2-fluoro-4-methoxy-5-(((1S,2R,3S,4R)-3-(((1-methylcyclobutyl)methyl)carbamoyl)bicyclo[2.2.1]heptan-2-yl)carbamoyl)phenoxy)-1-methylcyclohexane-1-carboxylic acid], the “Test B Human Plasma Protein Binding (% free)” value in data set [5] is reported as 4.3 % free. Further, the solubility in data set [6] is > 500 µM; in data set [7] (simulated gastric fluid pH 1.2 (SGF), simulated gastric fluid, kinetic from dmso stock, amorphous nanosuspension, extrapolation of light scattering to zero intensity) it was 8 µM (≈ 4.36 µg/mL). For the same molecule, the “Mean light scattering intensity” value in data set [7] (total concentration 1.2 uM) worked out at 0.16 a.u; in data set [7] (total concentration 2.5 uM) it was 0.28 a.u; in data set [7] (total concentration 3.7 uM), 0.33 a.u; in data set [7] (total concentration 6.1 uM), 0.33 a.u; in data set [7] (total concentration 8.5 uM) it was 1.71 a.u; in data set [7] (total concentration 10.8 uM), 4.94 a.u. Further, the “Mean light scattering intensity” value in data set [7] (total concentration 13.0 uM) is reported as 8.19 a.u; in data set [7] (total concentration 15.3 uM), 11.77 a.u; in data set [7] (total concentration 17.4 uM), 15.33 a.u; in data set [7] (total concentration 19.6 uM) it was 18.47 a.u.

As usually defined, the EC50 is the concentration that produces a half-maximal response. Broadly, the solubility is the concentration that dissolves in the medium under given conditions.
